Laboratory results from patent US20090054376A1, “BENZOFURAN DERIVATIVES WITH THERAPEUTIC ACTIVITIES” (Pharmos Corporation, priority 2005, published 2009).
Where a name gives a salt, the structure may show the parent alone. Read-outs that look alike come from different tables or passages of the source.

What was measured:
[1] = test system: visceral pain writhing responses; assay: Visceral pain, acetic acid induced writhing responses; type: in vivo, Male ICR mice; conditions: for inhibition in vivo at 2 mg/kg: Mus musculus, iv, read-out: Percent Inhibition of Visceral Pain Writhing Responses; for inhibition in vivo at 2 mg/kg / Percent Inhibition of Visceral Pain Writhing Responses: single dose 2 mg/kg i.v., compared to untreated group
Method: Male ICR mice (average body weight 25 g, Harlan, Israel) were pretreated by i.v. injection at volume dose of 5 ml/kg of vehicle, control and test compounds at various doses. Other routes of administration were tested for selected compounds including i.m. or s.c. injections at volume dose of 2.5 ml/kg and p.o. gavage at volume dose of 5 ml/kg. Compounds were dissolved in CREMOPHOR®:Ethanol and diluted 1:20 in saline prior to injection or gavage. Compounds administered i.v. were injected fifteen minutes before pain induction, whereas compounds administered i.m., s.c. or p.o. were supplied thirty minutes before pain induction, unless otherwise indicated. Each treatment group, except for controls comprising at least 30 animals, was composed of at least 6 animals. Fifteen or thirty minutes after drug administration, depending on the route of administration, the mice were injected i.p. with 10 ml/kg of 0.6% acetic acid and the number of visceral pain related behaviors (writhing movements globally defined as WR, i.e. stretching, contractions of the abdomen accompanied by an elongation of the body and extension of the hind limbs) was counted over a period of 5 minutes, starting 5 minutes after the acetic acid administration. These visceral pain related behaviors were globally defined as writhing responses (WR). The results are expressed as mean number of writhing responses ±SEM. Data were analyzed using analysis of variance (ANOVA) followed by post-hoc Fisher test.

[2] = test system: carrageenan induced inflammatory pain and paw edema; assay: Inflammatory pain and paw edema induced by carrageenan; type: in vivo, Male Sprague Dawley rats; conditions: for inhibition in vivo at 20 mg/kg / inhibition in vivo at 10 mg/kg: Rattus norvegicus, ip; for inhibition in vivo at 20 mg/kg: 20 mg/kg i.p. (two asterisks); for inhibition in vivo at 10 mg/kg / Percent Inhibition of Inflammatory Pain Responses, ΔForce / Percent Inhibition of Inflammatory Pain Responses, Edema / Percent Inhibition of Inflammatory Pain Responses, ΔLT: 10 mg/kg i.p.
Method: Male Sprague Dawley rats (average body weight 200 g, Harlan, Israel) were transiently sedated by placement on dry ice for the duration of the injections. Rats were injected subcutaneously, in the subplantar region of one (right) paw with 0.1 ml of 2% w/v λ Carrageenan in sterile saline. […] Test compounds were, unless otherwise stated, administered i.p. at initial single dose of 3, 10 or 20 mg/kg, and volume dose of 5 ml/kg, immediately after the carrageenan injection. Selected compounds were also tested p.o. following oral gavage. Vehicle and celecoxib treated animals were used as controls. Each treatment group comprised at least seven animals.
Before induction of inflammatory pain and three hours after injection, the animals reactions to pain stimuli were tested in two systems. The first stimulus was thermal and assessed by the Plantar Test according to Hargreaves, using Ugo Basile Model 7370. The scale was set to an intensity of 50 arbitrary units. The latency time till the animal lift a paw as a reaction to the thermal stimulus was recorded for both the inflamed and non-inflamed hind paws. The second stimulus was mechanical (tactile) and assessed using a Dynamic Plantar Sesthesiomether (Ugo Basile Model 73400-002). […] Finally, the impact on paw edema was assessed. Paw thickness was measured using a dial thickness gauge (Spring-dial, constant low pressure gauge, Mitutoyo, TG/L-1, 0.01 mm) and paw volume was measured using a plethysmometer (model #7150, Ugo Basile, Italy). At the end of the study, animals were euthanized.
The results are measured as the differences between the two hind paws at time 0 and 3 hours both as ALT, for the latency time in the thermal part of the study, and as ΔForce, for the mechanical part of the study. The paw volume is expressed as percent from vehicle treated animals. Results are expressed as mean±SEM for each treatment group and the differences among those groups are analyzed by analysis of variance (ANOVA) followed by post-hoc Tukey's test.
Results refer to i.p. treatment with 10 mg/kg. Results marked with one asterisk refer to a dose 3 mg/kg, whereas two asterisks refer to 20 mg/kg. Celecoxib is included as reference.

[3] = 3 hours, mechanical stimulus, read-out: Percent Inhibition of Inflammatory Pain Responses, ΔForce
[4] = 3 hours, reduction in paw swelling, read-out: Percent Inhibition of Inflammatory Pain Responses, Edema
[5] = 3 hours, thermal stimulus, read-out: Percent Inhibition of Inflammatory Pain Responses, ΔLT
[6] = 3 hours after carrageenan, reduction in paw swelling, read-out: Percent Inhibition of Inflammatory Pain Responses, Edema
[7] = 3 hours after carrageenan, reduction in paw swelling

## CCCCC(C)(C)c1cc(OCC(O)CO)c2c(c1)OC1CCCCC21 (stereo not shown) [Compound C6S-10, 3-[3-(1,1-Dimethylpentyl)-5a,6,7,8,9,9a-hexahydro-dibenzofuran-1-yloxy]-propane-1,2-diol]
[1]
  inhibition in vivo at 2 mg/kg: 28%
[2]; [3]
  inhibition in vivo at 20 mg/kg: 24%
[2]; [4]
  inhibition in vivo at 20 mg/kg: 37%
[2]; [5]
  inhibition in vivo at 20 mg/kg: 50%

## CCCCCCC(C)(C)c1cc(OC(=O)CCNC)c2c(c1)OC1CC(C)(C)CCC21 (stereo not shown) [Compound C6S-39, 3-Methylamino-propionic acid 3-(1,1-dimethylheptyl)-7,7-dimethyl-5a,6,7,8,9,9a-hexahydro-dibenzofuran-1-yl ester]
[1]; 0.02 mg/kg i.v., compared to vehicle
  inhibition of writhing responses: 38%
[1]; 0.08 mg/kg i.v.
  inhibition of pain response: totally inhibited pain response
[1]; IC50 in visceral pain, i.v.
  fold more potent than morphine: 35 fold
[1]
  inhibition in vivo at 2 mg/kg: > 90%
[1]; i.v., estimated or calculated from dose range
  IC50 in visceral pain: 0.03 mg/kg

## CCCCCCC(C)(C)c1cc(O)c2c3c(oc2c1)CCCC3 [Compound C6M-1, 3-(1,1-Dimethylheptyl)-6,7,8,9-tetrahydro-dibenzo-furan-1-ol]
[2]; [6]
  inhibition in vivo at 10 mg/kg: 31%
[2]; [3]
  inhibition in vivo at 10 mg/kg: 12%
[2]; [5]
  inhibition in vivo at 10 mg/kg: 12%

## Cc1ccc(-c2cc(C(F)(F)F)nn2-c2ccc(S(N)(=O)=O)cc2)cc1 [Celecoxib, reference compound]
[1]; doses up to 10 mg/kg
  activity in visceral pain model: inactive
[2]; 3 hours, mechanical stimulus
  Percent Inhibition of Inflammatory Pain Responses, ΔForce: 2%
[2]; [6]
  inhibition in vivo at 10 mg/kg: 45%
[2]; [3]
  inhibition in vivo at 10 mg/kg: 2%
[2]; [5]
  inhibition in vivo at 10 mg/kg: 58%

## CCCCCCC(C)(C)c1cc(O)c2c(c1)OC1(C)C(C)CCC21 (stereo not drawn) [Compound C5S-4, 6-(1,1-dimethylheptyl)-1,8a-dimethyl-2,3,3a,8a-tetrahydro-1H-8-oxa-cyclo-penta[α]inden-4-ol]
[2]; [7]
  Percent Inhibition of Inflammatory Pain Responses, Edema: 49%
[2]; 3 hours, mechanical stimulus
  Percent Inhibition of Inflammatory Pain Responses, ΔForce: 88%
[2]; 3 hours, thermal stimulus
  Percent Inhibition of Inflammatory Pain Responses, ΔLT: 100%

## CCCCCCC(C)(C)c1cc(OC(=O)C=CC(=O)O)c2c(c1)OC1(C)C(C)CCC21 (stereo not drawn) [Compound C5S-5, But-2-enedioic acid mono-[6-(1,1-dimethylheptyl)-1,8a-dimethyl-2,3,3a,8a-tetrahydro-1H-8-oxa-cyclopenta[α]inden-4-yl]ester]
[1]
  Percent Inhibition of Visceral Pain Writhing Responses: 27%

## CCCCCCC(C)(C)c1cc(OCC(=O)O)c2c(c1)OC1CCCCC21 (stereo not shown) [Compound C6S-18, [3-(1,1-dimethylheptyl)-5a,6,7,8,9,9a-hexahydro-dibenzofuran-1-yloxy]-acetic acid]
[2]; [3]
  inhibition in vivo at 20 mg/kg: 31%
[2]; [4]
  inhibition in vivo at 20 mg/kg: 48%
[2]; [5]
  inhibition in vivo at 20 mg/kg: 49%

## CCCCCCC(C)(C)c1cc2c(c(OP(=O)(O)O)c1)C1CCCCC(O)C1O2 (stereo not drawn) [Compound C7S-13, Phosphoric acid mono-[2-(1,1-dimethylheptyl)-9-hydroxy-5,6,7,8,9,9a-hexahydro-4bH-10-oxa-benzo[α]azulen-4-yl]ester]
[1]
  Percent Inhibition of Visceral Pain Writhing Responses: 72%
[2]; [7]
  Percent Inhibition of Inflammatory Pain Responses, Edema: 34%
[2]; 3 hours, mechanical stimulus
  Percent Inhibition of Inflammatory Pain Responses, ΔForce: 6%
[2]; 3 hours, thermal stimulus
  Percent Inhibition of Inflammatory Pain Responses, ΔLT: 0%

## CCCCC(C)(C)c1cc2c(c(OP(=O)(O)O)c1)C1CCCCC1O2 (stereo not shown) [Compound C6S-16, Phosphoric acid mono-[3-(1,1-dimethylpentyl)-5a,6,7,8,9,9a-hexahydro-dibenzofuran-1-yl]ester]
[2]; [3]
  inhibition in vivo at 20 mg/kg: 6%
[2]; [4]
  inhibition in vivo at 20 mg/kg: 31%
[2]; [5]
  inhibition in vivo at 20 mg/kg: 69%

## CCCCCCC(C)(C)c1cc(O)c2c(c1)OC1C(N)CCCCC21 (stereo not drawn) [Compound C7S-32, 9-Amino-2-(1,1-dimethylheptyl)-5,6,7,8,9,9a-hexahydro-4bH-10-oxa-benzo[α]azulen-4-ol]
[1]; 4 mg/kg i.v.
  inhibition of pain (writhing) response: 38%
[1]; 10 mg/kg i.v.
  inhibition of pain (writhing) response: 100%

## CCCCCCC(C)(C)c1cc(O)c2c(c1)OC1C(N)CCCCC21 (stereo not drawn) [C7S-32 HCl salt, 9-Amino-2-(1,1-dimethylheptyl)-5,6,7,8,9,9a-hexahydro-4bH-10-oxa-benzo[α]azulen-4-ol]
[1]; 4 mg/kg i.v.
  inhibition of pain (writhing) response: 50%
[1]; 10 mg/kg i.v.
  inhibition of pain (writhing) response: 84%

## CCCCC(C)(C)c1cc(O)c2c(c1)OC1CCCCC21C (stereo not shown) [Compound C6S-12, 3-(1,1-dimethylpentyl)-9a-methyl-5a,6,7,8,9,9a-hexahydro-dibenzofuran-1-ol]
[2]; [6]
  inhibition in vivo at 10 mg/kg: 53%
[2]; [3]
  inhibition in vivo at 10 mg/kg: 37%
[2]; [5]
  inhibition in vivo at 10 mg/kg: 33%

## COC(=O)c1cc(O)c2c(c1)OC1CCCCC21 (stereo not shown) [Compound C6S-21, 1-hydroxy-5a,6,7,8,9,9a-hexahydro-dibenzofuran-3-carboxylic acid methyl ester]
[2]; [4]
  inhibition in vivo at 20 mg/kg: 38%
[2]; [5]
  inhibition in vivo at 20 mg/kg: 44%

## CCCCC(C)(C)c1cc(O)c2c(c1)OC1CCCCCC21 (stereo not drawn) [Compound C7S-3, 2-(1,1-dimethylpentyl)-5,6,7,8,9,9a-hexahydro-4bH-10-oxa-benzo[α]azulen-4-ol]
[2]; [7]
  Percent Inhibition of Inflammatory Pain Responses, Edema: 43%
[2]; 3 hours, mechanical stimulus
  Percent Inhibition of Inflammatory Pain Responses, ΔForce: 35%
[2]; 3 hours, thermal stimulus
  Percent Inhibition of Inflammatory Pain Responses, ΔLT: 46%
